# Results: patent US9977030B2, “Detection of shed CD31, diagnosis of atherothrombosis and autoimmune disorders, and methods for analyzing signaling pathways” (INSTITUT NATIONAL DE LA SANTE ET DE LA RECHERCHE MEDICALE …, priority 2008, dated 2018)
# Test system: CD31 signaling complex captured by PECAM1.2 (CD31 domain 6) beads
# Assay: CBA beads assessment of CD31 ITIM-dependent inhibitory pathway in Jurkat T cells (protein association and phosphorylation)
# Format: cell-based, human
# Protocol: Lysis of the cells. Jurkat T cells in log phase (10×10^6/ml, 1 ml) were either left untouched (negative control) or incubated with Na3VO4/H2O2 (sodium ortovanadate which is a tyrosin phosphatase inhibitor, positive control for tyrosin phosphorylation). In parallel, cells were stimulated either with CD3 or with CD3+ CD31 (domain 2, WM-59 antibody) by antibody-mediated crosslinking. After 20′ incubation at 37° C. in 5% CO2, the cells were lysed on ice for 30′ with a RIPA buffer containing a cocktail of protease and phosphatase inhibitors. Lysates were ultragentrifuged and supernatants were used either straightforward or aliquoted and stored at −20° for further analysis.
# Capture of the target protein on a solid support (1 hour at room temperature). This step follows the principle of imunoprecipitation but the signaling complex is nor denatured neither reduced, and no electrophoresis and/or blotting is carried out. As a solid support, CBA® functional beads previously coupled with an antibody directed to the membrane-proximal CD31 Ig-like domain 6 (clone MBC 78.2 also called PECAM1.2) were used following the manufacturer's instructions. An aliquot of 20 μl of lysate supernatant from each condition was incubated with 5 μl PECAM1.2-CBA® for 1 hour at room temperature.
# Detection of molecules associated with CD31 and of the phosphorylation state of CD31 ITIM 686. After washing of the beads once with CBA washing buffer (100 μl/tube), the beads were been aliquoted in 4 separate tubes and incubated with fluorescent antibodies directed to: • CD3-FITC; • CD28-PE; • CD31 domain 6 (PECAM1.2 FITC) • CD31 domain 2 (WM-59 PE) • phosphoTyrosin (clone 4G10 FITC); • phosphoSerin/Threonin (labelled with FITC) • CD31 phosphotyrosin 686 (rabbit polyclonal conjugated with alexafluor 488 antirabbit secondary antibody); or • SHP2-PE.
# After 1 hour incubation at room temperature in the dark, beads were washed once with 100 μl CBA washing buffer and more than 600 beads were acquired using an LSR II and DIVA® software.
# 4. Analysis. The median fluorescence in each fluorescent channel was recorded. The DIVA® software also calculated the % CV (variability coefficient), which can be considered as an equivalent of error bar value for repeated measure and allow statistical comparison between samples.
# [1] = Jurkat T cell lysate, 20' incubation, captured on PECAM1.2-CBA beads
substance,measurement,setting,value
sodium ortovanadate [Na3VO4/H2O2],MFI CD3,"CD3 associated with bead-captured CD31, Jurkat T cells",354 MFI
same,MFI CD28,"CD28 associated with bead-captured CD31, Jurkat T cells",3932 MFI
same,% shed CD31,[1],25%
same,CD31 dom2,[1],77 ng/mL
same,CD31 dom6,[1],103 ng/mL
same,MFI SHP-2,"SHP-2 associated with bead-captured CD31, Jurkat T cells",193 MFI
same,MFI CD31 pY686,"bead-captured CD31, Jurkat T cells",10667 MFI
same,MFI pSer/pThreo,"phosphoSerin/Threonin on bead-captured CD31 complex, Jurkat T cells",324 MFI
same,MFI pY (4G10),"total phosphoTyrosin on bead-captured CD31 complex, Jurkat T cells",1205 MFI
